# Values of other authors, collected in US11737967B2, “Increasing the stability of agents for treating keratin material” (Henkel AG & Co. KGaA, priority 2019, dated 2023).
# Conditions: 25° C.
row,SMILES,solubility in water
1,CCN(Cc1cccc(S(=O)(=O)[O-])c1)c1ccc(C(=C2C=CC(=[N+](CC)Cc3cccc(S(=O)(=O)[O-])c3)C=C2)c2ccccc2S(=O)(=O)[O-])cc1.[Na+].[Na+] [Acid Blue 9],more than 20 % by weight
2,"O=C([O-])c1c(Cl)c(Cl)c(Cl)c(Cl)c1-c1c2c(Br)cc(=O)c(Br)c-2oc2c(Br)c(O)cc(Br)c12.O=C([O-])c1c(Cl)c(Cl)c(Cl)c(Cl)c1-c1c2c(Br)cc(=O)c(Br)c-2oc2c(Br)c(O)cc(Br)c12.[Na+].[Na+] [Acid Red 92, disodium salt of 3,4,5,6-tetrachloro-2-(1,4,5,8-tetrabromo-6-hydroxy-3-oxoxanthen-9-yl)benzoic acid]",greater than 10 g/L
3,"O=S(=O)([O-])c1ccc(N=Nc2c(O)ccc3ccccc23)cc1.[Na+] [Acid Orange 7, sodium salt of 4-[(2-hydroxy-1-naphthyl)azo]benzene sulphonate]",more than 7 g/L

# Results, then the compound that gave them:
row,solubility in water,SMILES
1,highly soluble,"O=C([O-])C1=NN(c2ccc(S(=O)(=O)[O-])cc2)C(=O)C1N=Nc1ccc(S(=O)(=O)[O-])cc1.[Na+].[Na+].[Na+] (centres unmarked) [Acid Yellow 23, trisodium salt of 4,5-dihydro-5-oxo-1-(4-sulfophenyl)-4-((4-sulfophenyl)azo)-1H-pyrazole-3-carboxylic acid]"
2,2500 µg/mL,"Nc1cc(S(=O)(=O)[O-])cc2cc(S(=O)(=O)[O-])c(N=Nc3ccccc3)c(O)c12.[Na+].[Na+] [Acid Red 33, diantrium salt of 5-amino-4-hydroxy-3-(phenylazo)-naphthalene-2,7-disulphonate]"
